Assay results taken from patent publication US9771334B2, “Triketone compound and preparation method and use thereof” (SHANDONG CYNDA CHEMICAL CO., LTD., priority 2013, dated 2017).

Key:
Assay in all cases: Herbicidal activity, pot culture method (primary and secondary screening test)
Assay type in all cases: in vivo
Details in all cases: primary screening, pot culture, 150 g/ha, sprayed at 3-leaf stage, result 15 days later
amaranthus retroflexus = tested on: amaranthus retroflexus
Outline: (§1)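 Percent growth inhibition of weeds sprayed at the 3-leaf stage, 150 g/ha in the primary screen and a lower dose in the secondary screen, scored 15 days after treatment under greenhouse conditions.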

digitaria sanguinalis = tested on: digitaria sanguinalis
Outline: as §1

eclipta prostrata = tested on: eclipta prostrata
Outline: as §1

echinochloa crusgalli = tested on: echinochloa crusgalli
Outline: as §1

abutilon theophrasti = tested on: abutilon theophrasti
Outline: as §1

setaria viridis = tested on: setaria viridis
Outline: as §1

Row | Compound | herbicidal activity inhibition ratio (%), Amaranthus retroflexus (amaranthus retroflexus) [%] | herbicidal activity inhibition ratio (%), Digitaria sanguinalis (digitaria sanguinalis) [%] | herbicidal activity inhibition ratio (%), Eclipta prostrata (eclipta prostrata) [%] | herbicidal activity inhibition ratio (%), Echinochloa crusgalli (echinochloa crusgalli) [%] | herbicidal activity inhibition ratio (%), Abutilon theophrasti (abutilon theophrasti) [%] | herbicidal activity inhibition ratio (%), Setaria viridis (setaria viridis) [%]
1 | Cn1c(=O)n(-c2c(Cl)cccc2Cl)c(=O)c2cc(C(=O)C3=C(O)CCCC3=O)ccc21 [Compound 32] | 85 | 80 | 50 | 80 | 80 | 40
2 | CC(C)c1cccc(C(C)C)c1-n1c(=O)c2cc(C(=O)C3=C(O)CCCC3=O)ccc2n(C)c1=O [Compound 46] | 100 | 55 | 70 | 60 | 35 | 20
3 | Cc1cccc(C)c1-n1c(=O)c2cc(C(=O)C3=C(O)C(C)(C)CCC3=O)ccc2n(C)c1=O [Compound 54] | 98 | 60 | 80 | 95 | 100 | 45
4 | Cc1ccccc1-n1c(=O)c2c(C)c(C(=O)C3=C(O)CCCC3=O)ccc2n(C)c1=O [Compound 82] | 100 | 100 | 100 | 100 | 100 | 100
5 | Cc1cccc(Cl)c1-n1c(=O)c2cc(C(=O)C3=C(O)CC(C)(C)CC3=O)ccc2n(C)c1=O [Compound 96] | 100 | 30 | 83 | 55 | 95 | 95
6 | Cn1c(=O)n(-c2cccc(C(F)(F)F)c2)c(=O)c2cc(C(=O)C3=C(O)CC(C)(C)CC3=O)ccc21 [Compound 51] | 90 | 83 | 80 | 50 | 93 | 40
